Experimental data reported in ChEMBL document CHEMBL4813999, “Mur ligases inhibitors with azastilbene scaffold: Expanding the structure-activity relationship” (Bioorg Med Chem Lett, 2021).
pIC50: −log10 of the molar value. ≈ marks a conversion by molar mass, not a printed value.

Key:
Staphylococcus aureus = experiment: Antibacterial activity against Staphylococcus aureus ATCC 29213 assessed as inhibition of bacterial growth; type: functional
[1] = Inhibition of MurD (unknown origin) at 100 uM relative to control
[2] = Inhibition of MurC (unknown origin) at 100 uM relative to control
[3] = Inhibition of MurD (unknown origin)
Escherichia coli = experiment: Antibacterial activity against Escherichia coli ATCC 25922 assessed as inhibition of bacterial growth; type: functional
[4] = Inhibition of MurE (unknown origin) at 100 uM relative to control
[5] = Inhibition of MurF (Unknown origin) at 100 uM relative to control
[6] = Inhibition of MurE (unknown origin)
[7] = Inhibition of MurF (unknown origin)
[8] = Inhibition of MurC (unknown origin)

Row | Structure (SMILES) | MIC (Staphylococcus aureus) | inhibition [1] | inhibition [2] | pIC50 [3] | MIC (Escherichia coli) | inhibition [4] | inhibition [5] | pIC50 [6] | pIC50 [7] | pIC50 [8]
1 | Cc1cc(-c2ccco2)cc(C)c1/C=C/c1cccc(-c2nnn[nH]2)c1 | > 250 µM | 64% | 5% | 3.97 | > 250 µM | 30% | 21% |  |  | 
2 | Cc1cc(-c2ccco2)cc(C)c1/C=C/c1cncc(-c2nn[nH]n2)c1 | > 250 µM | 55% | 30% | 3.98 | > 250 µM | 51% | 74% | 4.10 | 4.23 | 
3 | Cc1cc(-c2ccco2)cc(C)c1/C=C/c1cncc(C2=NCCN2)c1 | 31 µM (≈ 10.6 µg/mL) | 47% | 42% | 3.80 | 250 µM (≈ 85.9 µg/mL) | 10% | 40% |  | 3.70 | 3.82
4 | Cc1cc(-c2ccncc2)cc(C)c1/C=C/c1cncc(-c2nnn[nH]2)c1 | > 250 µM | 9% | 14% |  | > 250 µM | 19% | 15% |  |  | 
5 | COC(=O)c1cccc(-c2cc(C)c(/C=C/c3cncc(-c4nnn[nH]4)c3)c(C)c2)c1 | > 250 µM | 16% | 15% |  | > 250 µM | 23% | 16% |  |  | 
6 | Cc1cc(-c2ccco2)cc(C)c1/C=C/c1cc(-c2nnn[nH]2)ccn1 | > 250 µM | 73% | 23% | 4.25 | > 250 µM | 55% | 84% | 4.01 | 4.77 | 
7 | Cc1cc(-c2ccco2)cc(C)c1/C=C/c1cncc(C2=NCCS2)c1 | > 250 µM | 70% | 56% | 4.07 | > 250 µM | 46% | 58% | 3.82 | 4.15 | 4.09
8 | Cc1cc(N2CCCC2)cc(C)c1/C=C/c1cncc(-c2nnn[nH]2)c1 | 250 µM (≈ 86.6 µg/mL) | 1% | 22% |  | > 250 µM | 16% | 29% |  |  | 
9 | Cc1cc(N2CCCCC2=O)cc(C)c1/C=C/c1cncc(-c2nnn[nH]2)c1 | > 250 µM | 14% | 15% |  | > 250 µM | 30% | 38% |  |  | 
10 | Cc1cc(-c2ccco2)cc(C)c1/C=C/c1cncc(C2=NCCO2)c1 | 125 µM (≈ 43.1 µg/mL) | 45% | 44% | 3.90 | > 250 µM | 32% | 44% |  | 3.84 | 3.82
11 | COc1cccc(-c2cc(C)c(/C=C/c3cncc(-c4nnn[nH]4)c3)c(C)c2)c1 | > 250 µM | 23% | 15% |  | > 250 µM | 21% | 18% |  |  | 
12 | Cc1cc(-c2cccc(C(=O)O)c2)cc(C)c1/C=C/c1cncc(-c2nnn[nH]2)c1 | > 250 µM | 26% | 33% |  | > 250 µM | 39% | 18% |  |  | 
13 | Cc1cc(-c2cccc(CO)c2)cc(C)c1/C=C/c1cncc(-c2nnn[nH]2)c1 | > 250 µM | 14% | 25% |  | > 250 µM | 23% | 24% |  |  | 
14 | Cc1cc(-c2cccnc2)cc(C)c1/C=C/c1cncc(-c2nn[nH]n2)c1 | > 250 µM | 10% | 10% |  | > 250 µM | 4% | 0% |  |  | 
15 | Cc1cc(-c2ccco2)cc(C)c1/C=C/c1cncc(C#N)c1 | > 250 µM | 27% | 22% |  | > 250 µM | 35% | 21% |  |  | 
16 | COc1ccccc1-c1cc(C)c(/C=C/c2cncc(-c3nnn[nH]3)c2)c(C)c1 | 125 µM (≈ 47.9 µg/mL) | 42% | 35% | 3.98 | > 250 µM | 33% | 0% |  |  | 
17 | Cc1cc(-c2ccco2)cc(C)c1/C=C/c1cncc(C(N)=O)c1 | > 250 µM | 40% | 20% | 3.77 | > 250 µM | 51% | 76% | 3.81 | 4.51 | 
18 | COc1ccc(-c2cc(C)c(/C=C/c3cncc(-c4nnn[nH]4)c3)c(C)c2)cc1 | 250 µM (≈ 95.9 µg/mL) | 30% | 30% |  | > 250 µM | 37% | 25% |  |  | 
19 | Cc1cc(-c2ccco2)cc(C)c1/C=C/c1cncc(C(=O)O)c1 | > 250 µM | 70% | 43% | 4.19 | > 250 µM | 27% | 47% |  | 3.96 | 3.82
20 | Cc1cc(-c2ccoc2)cc(C)c1/C=C/c1cncc(-c2nnn[nH]2)c1 | > 250 µM | 22% | 16% |  | > 250 µM | 18% | 12% |  |  | 
21 | Cc1cc(Br)cc(C)c1/C=C/c1cncc(-c2nnn[nH]2)c1 | 250 µM (≈ 89.1 µg/mL) | 46% | 30% | 3.88 | > 250 µM | 38% | 32% |  |  | 
